Columns and labels:
[1] = test system: Adult male Sprauge-Dawley rats; test: Extinction of conditioned avoidance response (CAE) in a shuttle box; format: in vivo; details: 10 mg/kg and 30 mg/kg i.p. on the 2 days prior to testing and 1 hour before it, extinction tested during 14 days vs saline control
Protocol: Adult male Sprauge-Dawley rats (Charles River, Wilmington, MA), age 25 weeks and weighing 350-400 g, are separately housed in stainless steel cages with continuous access to food and water, a 12-hour light-dark cycle, and constant room temperature of 22° to 24 C. All testing took place approximately 6 hours into the dark component of the light-dark cycle and was conducted in a dimly lighted soundproof room using a standard shuttle box device ([…] Valley Electronics #146-04), a plexiglass chamber (50 x 20 x 20 cm) divided by a center barrier 7 cm in height. The conditioned stimulus consisted of a 10-second tone provided by a Sonlert mounted in the midpoint of the ceiling of the chamber. Floor current of 0.8 mA was delivered by a constant current shocker-scrambler ([…] Valley Electronics #133-33). The day before the initiation of training each animal was allowed to explore the experimental chamber for 10 minutes without any tone or shock. Training was conducted for 15 days following the day of experimental chamber exploration. Each animal received 20 trials per day on a 30-second variable interval schedule. No drug treatment was administered during the training period. Shock could be avoided by shuttling from one side of the center barrier to the other during the 10-second tone period. […] Animals which consistently remained on the center barrier were removed from the study. Automatic counters recorded the number of avoidance responses, escapes, and intertrial crossings, while a running time meter recorded the total shock duration for each animal. Animals not meeting the admittance criterion of correct avoidance rsponding on at least 85% of the trials for 4 out of the last 5 days of training were removed from the study. A total of 99 rats reaching the admittance criterion were tested for extinction of conditioned avoidance response (CAE) during 14 days. […] All solutions were prepared fresh and administered i.p. ([…]) on the 2 days prior to testing and then 1 hour before it. […] The tone was simply discontinued and the testing proceeded. Two-way analysis of variance of the CAE data yielded an overall significant difference in the rate of shuttle extinction between treatment groups.

SMILES | protective effects on memory of previously learned tasks (rate of shuttle extinction) [1] | further results
COC(=O)C1=CCCN(C)C1 [arecoline] |  | basal learning (speed of habituation) (Male albino (BKW) mice; mouse, in vivo): the time course of the basic 'learning' or habituation was unaffected
C[C@H](CS)C(=O)N1CCC[C@H]1C(=O)O [captopril] | possess protective effects on memory of previously learned tasks | 
COc1ccc([C@@H]2Sc3ccccc3N(CCN(C)C)C(=O)[C@@H]2OC(C)=O)cc1 [diltiazem] | possess protective effects on memory of previously learned tasks | antagonism of impairment in habituation caused by acute challenge with scopolamine (Male albino (BKW) mice; mice, scopolamine 0.25 mg/kg i.p. acute challenge (days 6 and 10 for diltiazem), arecoline 50 mg/kg/day i.p. infusion, hydergine 0.1 mg/kg p.o. daily, listed as Diltiazem): found to antagonize the impairment in habituation performance
C[C@@H](CS)C(=O)N1CCC[C@H]1C(=O)O [epicaptopril] | do not have protective effects against loss of memory of previously learned tasks | 
C[C@](N)(Cc1ccc(O)c(O)c1)C(=O)O [methyldopa] | do not have protective effects against loss of memory of previously learned tasks | 
CN1[C@@H]2C[C@@H](OC(=O)[C@H](CO)c3ccccc3)C[C@H]1[C@@H]1O[C@@H]12 [scopolamine] |  | influence on habituation of the challenge agent, daily challenge (Male albino (BKW) mice; mouse, in vivo): The habituation was impaired throughout the time of scopolamine challenge; autonomic disturbance (Male albino (BKW) mice; mouse, in vivo, ip, 0.25 mg/kg): did not cause autonomic disturbance; effect on vision (Male albino (BKW) mice; mouse, in vivo, ip, 0.25 mg/kg): lack of effect on vision
C[C@H](CSC(=O)c1ccccc1)C(=O)N1C[C@@H](Sc2ccccc2)C[C@H]1C(=O)O [zofenopril] | possess protective effects on memory of previously learned tasks | 

Source: patent EP0344995A2, “Method for inhibiting loss of cognitive functions employing a calcium channel blocker alone or in combination with an ace inhibitor” (E.R. SQUIBB & SONS, INC., priority 1988, dated 1989)
